Data taken from patent US20260035387A1 (BIOGEN MA INC., priority 2022, published 2026).

System: mutant Huntington (HTT) protein
Test: HTT Mutant HTRF iPSC assay (mHTT protein lowering)
Type: cell-based
Settings: human iPSC derived from a HTT patient with a poly-Q49 mutation

SMILES: CCN1CCN(c2ccc3cc(C(=O)Nc4cn5cc(C)nc5c(C)n4)sc3n2)CC1 [Compound 240, N-(2,8-dimethylimidazo[1,2-a]pyrazin-6-yl)-6-(4-ethylpiperazin-1-yl)thieno[2,3-b]pyridine-2-carboxamide]
- IC50: < 100 nM

SMILES: COc1nc(NC(=O)c2nc3ccc(N4CCC(N(C)C)C4)nc3s2)cn2cc(C)nc12 (stereo not drawn) [Compound 100, 5-(3-(dimethylamino)pyrrolidin-1-yl)-N-(8-methoxy-2-methylimidazo[1,2-a]pyrazin-6-yl)thiazolo[5,4-b]pyridine-2-carboxamide]
- IC50: < 100 nM

SMILES: CCN1CCN(c2ccc3cc(C(=O)Nc4cn5cc(C)nc5c(C(F)F)n4)sc3n2)CC1 [Compound 253, N-(8-(difluoromethyl)-2-methylimidazo[1,2-a]pyrazin-6-yl)-6-(4-ethylpiperazin-1-yl)thieno[2,3-b]pyridine-2-carboxamide]
- IC50: < 100 nM

SMILES: CN(C)C1CCN(c2ccc3cc(C(=O)Nc4ccc5nsnc5c4)sc3n2)C1 (stereo not drawn) [Compound 63, N-(benzo[c][1,2,5]thiadiazol-5-yl)-6-(3-(dimethylamino)pyrrolidin-1-yl)thieno[2,3-b]pyridine-2-carboxamide]
- IC50: 1000 to 9000 nM

SMILES: COc1cc2nn(C)cc2cc1NC(=O)c1nc2ccc(C3CCN(C)C3)nc2s1 (stereo not drawn) [Compound 137, N-(6-methoxy-2-methyl-2H-indazol-5-yl)-5-(1-methylpyrrolidin-3-yl)thiazolo[5,4-b]pyridine-2-carboxamide]
- IC50: < 100 nM

SMILES: [2H]C([2H])([2H])N1CCN(c2ccc3cc(C(=O)Nc4cn5cc(C)nc5c(C)n4)sc3n2)CC1 [Compound 195, N-(2,8-dimethylimidazo[1,2-a]pyrazin-6-yl)-6-(4-(methyl-d3)piperazin-1-yl)thieno[2,3-b]pyridine-2-carboxamide]
- IC50: < 100 nM

SMILES: COc1c(NC(=O)c2cc3ccc(C4CCN(C)C4)nc3s2)cc2cn(C)nc2c1F (single isomer, unassigned) [Compound 266]
- IC50: < 100 nM

SMILES: Cc1cn2cc(NC(=O)c3cc4ccc(N5CCNCC5)nc4s3)cc(F)c2n1 [Compound 75, N-(8-fluoro-2-methylimidazo[1,2-a]pyridin-6-yl)-6-(piperazin-1-yl)thieno[2,3-b]pyridine-2-carboxamide]
- IC50: < 100 nM

SMILES: CCN1CCN(c2ccc3nc(C(=O)Nc4cn5cc(C)nc5c(C)n4)sc3n2)CC1 [Compound 119, N-(2,8-dimethylimidazo[1,2-a]pyrazin-6-yl)-5-(4-ethylpiperazin-1-yl)thiazolo[5,4-b]pyridine-2-carboxamide]
- IC50: 100 to 1000 nM

SMILES: COc1cc2nn(C)cc2cc1NC(=O)c1nc2ccc(N3CC[C@@H](N4CCC4)C3)nc2s1 [Compound 120, (R)-5-(3-(azetidin-1-yl)pyrrolidin-1-yl)-N-(6-methoxy-2-methyl-2H-indazol-5-yl)thiazolo[5,4-b]pyridine-2-carboxamide]
- IC50: 100 to 1000 nM

SMILES: Cc1cn2cc(NC(=O)c3nc4ccc(C5=C[C@@H](C)N[C@@H](C)C5)nc4s3)cc(F)c2n1 [Compound 140, 5-[(2S,6R)-2,6-dimethyl-1,2,3,6-tetrahydropyridin-4-yl]-N-(8-fluoro-2-methyl-imidazo[1,2-a]pyridin-6-yl)thiazolo[5,4-b]pyridine-2-carboxamide]
- IC50: < 100 nM

SMILES: CN(C)C1CCN(c2ccc3cc(C(=O)Nc4ccc5sc(=O)n(C)c5c4)sc3n2)C1 (stereo not drawn) [Compound 59, 6-(3-(dimethylamino)pyrrolidin-1-yl)-N-(3-methyl-2-oxo-2,3-dihydrobenzo[d]thiazol-5-yl)thieno[2,3-b]pyridine-2-carboxamide]
- IC50: 1000 to 9000 nM

SMILES: Cc1cn2cc(NC(=O)c3cc4ncc(C5=CCNCC5)nc4s3)cc(F)c2n1 [Compound 147, N-(8-fluoro-2-methylimidazo[1,2-a]pyridin-6-yl)-3-(1,2,3,6-tetrahydropyridin-4-yl)thieno[2,3-b]pyrazine-6-carboxamide]
- IC50: < 100 nM

SMILES: COc1cc2nn(C)cc2cc1NC(=O)c1cc2nc(C3CCN(C)CC3)ccc2o1 [Compound 269, N-(6-methoxy-2-methyl-2H-indazol-5-yl)-5-(1-methylpiperidin-4-yl)furo[3,2-b]pyridine-2-carboxamide]
- IC50: 100 to 1000 nM

SMILES: Cc1cn2cc(NC(=O)c3cc4ccc(N5CC(N(C)C)C6(CC6)C5)nc4s3)nc(C)c2n1 (stereo not drawn) [Compound 211, 6-(7-(dimethylamino)-5-azaspiro[2.4]heptan-5-yl)-N-(2,8-dimethylimidazo[1,2-a]pyrazin-6-yl)thieno[2,3-b]pyridine-2-carboxamide]
- IC50: < 100 nM

SMILES: Cc1cn2cc(NC(=O)c3cc4ccc(N5CCC(N6CC(C)(C)C6)C5)nc4s3)ccc2n1 (stereo not drawn) [Compound 35, 6-(3-(3,3-dimethylazetidin-1-yl)pyrrolidin-1-yl)-N-(2-methylimidazo[1,2-a]pyridin-6-yl)thieno[2,3-b]pyridine-2-carboxamide]
- IC50: 100 to 1000 nM

SMILES: Cc1cn2cc(NC(=O)c3cc4ccc(N5CC6CCC(N(C)C)CC6C5)nc4s3)ccc2n1 (stereo not drawn) [Compound 32, 6-(5-(dimethylamino)octahydro-2H-isoindol-2-yl)-N-(2-methylimidazo[1,2-a]pyridin-6-yl)thieno[2,3-b]pyridine-2-carboxamide]
- IC50: 1000 to 9000 nM

SMILES: Cc1cn2cc(NC(=O)c3cc4ccc(N5CCC(NCC6CC6)C5)nc4s3)cc(F)c2n1 (single isomer, unassigned) [Compound 210]
- IC50: < 100 nM

SMILES: Cc1cn2cc(NC(=O)c3cc4ccc(N5CCC(N6CC(C)(C)C6)CC5)nc4s3)ccc2n1 [Compound 17, 6-(4-(3,3-dimethylazetidin-1-yl)piperidin-1-yl)-N-(2-methylimidazo[1,2-a]pyridin-6-yl)thieno[2,3-b]pyridine-2-carboxamide]
- IC50: 1000 to 9000 nM

SMILES: Cc1cn2cc(NC(=O)c3nc4ccc(C5CCN(C)C5)nc4s3)cc(F)c2n1 (stereo not drawn) [Compound 131, N-(8-fluoro-2-methylimidazo[1,2-a]pyridin-6-yl)-5-(1-methylpyrrolidin-3-yl)thiazolo[5,4-b]pyridine-2-carboxamide]
- IC50: < 100 nM

SMILES: Cc1nc(NC(=O)c2cc3ccc(N4C[C@@H]5CN(C)C[C@@H]54)nc3s2)cc2cn(C)nc12 [Compound 229, N-(2,7-dimethyl-2H-pyrazolo[3,4-c]pyridin-5-yl)-6-((1S,5R)-3-methyl-3,6-diazabicyclo[3.2.0]heptan-6-yl)thieno[2,3-b]pyridine-2-carboxamide]
- IC50: < 100 nM

SMILES: Cc1cc(NC(=O)c2cc3ccc(N4C[C@@H](C)N[C@@H](C)C4)nc3s2)cc2cn(C)nc12 [Compound 2, N-(2,7-dimethylindazol-5-yl)-6-[(3S,5R)-3,5-dimethylpiperazin-1-yl]thieno[2,3-b]pyridine-2-carboxamide]
- IC50: < 100 nM

SMILES: Cc1cn2cc(NC(=O)c3cc4ccc(C5CCCN(C)C5)nc4s3)nc(C)c2n1 (single isomer, unassigned) [Compound 187]
- IC50: 100 to 1000 nM

SMILES: Cc1cn2cc(NC(=O)c3cc4ccc(N5CC6CCCN6CC5C)nc4s3)ccc2n1 (stereo not drawn) [Compound 45, 6-(3-methylhexahydropyrrolo[1,2-a]pyrazin-2(1H)-yl)-N-(2-methylimidazo[1,2-a]pyridin-6-yl)thieno[2,3-b]pyridine-2-carboxamide]
- IC50: 100 to 1000 nM

SMILES: COc1cc2nn(C)cc2cc1NC(=O)c1cc2ccc(C3CCCN(C)C3)nc2s1 (single isomer, unassigned) [Compound 186]
- IC50: < 100 nM

SMILES: CCNC1CCN(c2ccc3cc(C(=O)Nc4cc5cc(C)nn5cc4OC)sc3n2)C1 (single isomer, unassigned) [Compound 213]
- IC50: < 100 nM

SMILES: Cc1cn2cc(NC(=O)c3cc4ccc(N5CC6CCN(C)C6C5)nc4s3)ccc2n1 (stereo in doubt) [Compound 43, 6-((3aR,6aR)-1-methylhexahydropyrrolo[3,4-b]pyrrol-5(1H)-yl)-N-(2-methylimidazo[1,2-a]pyridin-6-yl)thieno[2,3-b]pyridine-2-carboxamide]
- IC50: 100 to 1000 nM

SMILES: Cc1cn2cc(NC(=O)c3cc4ccc(N5CC[C@H](N(C)C)C5)nc4s3)nc(C)c2n1 [Compound 50, (S)-6-(3-(dimethylamino)pyrrolidin-1-yl)-N-(2,8-dimethylimidazo[1,2-a]pyrazin-6-yl)thieno[2,3-b]pyridine-2-carboxamide]
- IC50: 100 to 1000 nM

SMILES: COc1c(NC(=O)c2cc3ccc(N4CCC5(CCCN5C)C4)nc3s2)cn2cc(C)nc2c1F (single isomer, unassigned) [Compound 239]
- IC50: < 100 nM

SMILES: Cc1cn2nc(NC(=O)c3cc4ccc(N5CC[C@@H](N(C)C)C5)nc4s3)cc(C)c2n1 [Compound 56, (R)-6-(3-(dimethylamino)pyrrolidin-1-yl)-N-(2,8-dimethylimidazo[1,2-b]pyridazin-6-yl)thieno[2,3-b]pyridine-2-carboxamide]
- IC50: 1000 to 9000 nM

SMILES: COc1cc2nn(C)cc2cc1NC(=O)c1cc2ccc(N3CC4(CCCN4C)C3)nc2s1 [Compound 236, N-(6-methoxy-2-methyl-2H-indazol-5-yl)-6-(5-methyl-2,5-diazaspiro[3.4]octan-2-yl)thieno[2,3-b]pyridine-2-carboxamide]
- IC50: < 100 nM

SMILES: COc1c(NC(=O)c2nc3ccc(N4CCC5(CCCN5C)C4)nc3s2)cn2cc(C)nc2c1F (single isomer, unassigned) [Compound 128]
- IC50: < 100 nM

SMILES: COc1c(NC(=O)c2cc3ccc(C4CCN(C)C4)nc3s2)cc2cn(C)nc2c1F (single isomer, unassigned) [Compound 265]
- IC50: < 100 nM

SMILES: COc1cc2nn(C)cc2cc1NC(=O)c1cc2nc(N3CCC(N4CCC4)C3)ccc2o1 (stereo not drawn) [Compound 164, 5-(3-(azetidin-1-yl)pyrrolidin-1-yl)-N-(6-methoxy-2-methyl-2H-indazol-5-yl)furo[3,2-b]pyridine-2-carboxamide]
- IC50: 100 to 1000 nM

SMILES: Cc1cn2cc(NC(=O)c3cc4ccc(N5CC[C@H]6CN(C)CC[C@H]65)nc4s3)ccc2n1 (stereo in doubt) [Compound 28, N-(2-methylimidazo[1,2-a]pyridin-6-yl)-6-((3aS,7aR)-5-methyloctahydro-1H-pyrrolo[3,2-c]pyridin-1-yl)thieno[2,3-b]pyridine-2-carboxamide]
- IC50: 1000 to 9000 nM

SMILES: Cc1cn2cc(NC(=O)c3nc4ccc(N5CCC6(CCN6)C5)nc4s3)cc(F)c2n1 (stereo not drawn) [Compound 112, N-(8-fluoro-2-methylimidazo[1,2-a]pyridin-6-yl)-5-(1,6-diazaspiro[3.4]octan-6-yl)thiazolo[5,4-b]pyridine-2-carboxamide]
- IC50: < 100 nM
